Data reported in article PMC6113708, “Ginsenoside Rb1 and Rd Remarkably Inhibited the Hepatic Uptake of Ophiopogonin D in Shenmai Injection Mediated by OATPs/oatps” (Frontiers in Pharmacology, 2018).

Key:
OATP1B3 [1] = target: T1, OATP1B3 (Homo sapiens, UniProt Q9NPD5); assay: inhibition of ophiopogonin D uptake in HEK293T cells, LC-MS; assay type: cell-based
T1 construct: gene SLCO1B3; stably expressed in HEK293T cells (Shanghai Genechem), sodium butyrate induced
T1 sequence (Q9NPD5 1-702): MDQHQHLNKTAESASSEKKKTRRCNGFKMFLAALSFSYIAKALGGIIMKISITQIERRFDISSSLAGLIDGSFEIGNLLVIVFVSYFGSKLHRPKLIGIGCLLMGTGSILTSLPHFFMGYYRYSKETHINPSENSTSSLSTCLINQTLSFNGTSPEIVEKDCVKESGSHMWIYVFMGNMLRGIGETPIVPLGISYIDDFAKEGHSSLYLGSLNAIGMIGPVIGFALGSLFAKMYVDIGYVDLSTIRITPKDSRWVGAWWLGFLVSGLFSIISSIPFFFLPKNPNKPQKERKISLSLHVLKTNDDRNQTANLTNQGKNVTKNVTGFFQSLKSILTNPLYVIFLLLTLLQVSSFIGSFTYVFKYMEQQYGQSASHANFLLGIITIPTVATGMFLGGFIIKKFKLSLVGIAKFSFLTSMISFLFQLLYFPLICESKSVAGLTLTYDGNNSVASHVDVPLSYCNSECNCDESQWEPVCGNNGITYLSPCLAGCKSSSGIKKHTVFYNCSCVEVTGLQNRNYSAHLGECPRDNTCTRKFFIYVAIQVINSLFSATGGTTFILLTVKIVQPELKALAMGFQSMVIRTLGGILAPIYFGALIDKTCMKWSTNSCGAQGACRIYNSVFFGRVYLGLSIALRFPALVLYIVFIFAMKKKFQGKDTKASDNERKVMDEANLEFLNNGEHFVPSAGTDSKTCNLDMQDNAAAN
Excerpt: inhibition of ophiopogonin D uptake in HEK293T cells, LC-MS on OATP1B3

OATP1B3 [2] = target: T1, OATP1B3; assay: concentration-dependent uptake in HEK293T cells, LC-MS; assay type: cell-based
Excerpt: concentration-dependent uptake in HEK293T cells, LC-MS on OATP1B3 | uptake process of OPD for OATP1B3 followed a typical Michaelis-Menten equation

IC50 (OATP1B3 [1]) | SMILES | Km (OATP1B3 [2])
570 nM | CC(C)=CCC[C@](C)(O[C@@H]1O[C@H](CO[C@@H]2O[C@H](CO)[C@@H](O)[C@H](O)[C@H]2O)[C@@H](O)[C@H](O)[C@H]1O)[C@H]1CC[C@]2(C)[C@@H]1[C@H](O)C[C@@H]1[C@@]3(C)CC[C@H](O[C@@H]4O[C@H](CO)[C@@H](O)[C@H](O)[C@H]4O[C@@H]4O[C@H](CO)[C@@H](O)[C@H](O)[C@H]4O)C(C)(C)[C@@H]3CC[C@]12C [ginsenoside Rb1] | –
– | C[C@@H]1CC[C@@]2(OC1)O[C@H]1C[C@H]3[C@@H]4CC=C5C[C@@H](O)C[C@@H](O[C@@H]6O[C@H](C)[C@H](O)[C@H](O[C@@H]7OC[C@@H](O)[C@H](O)[C@H]7O)[C@H]6O[C@@H]6O[C@@H](C)[C@H](O)[C@@H](O)[C@H]6O)[C@]5(C)[C@H]4CC[C@]3(C)[C@H]1[C@@H]2C [Ophiopogonin D] | 11.3 µM
320 nM | CC(C)=CCC[C@](C)(O[C@@H]1O[C@H](CO)[C@@H](O)[C@H](O)[C@H]1O)[C@H]1CC[C@]2(C)[C@@H]1[C@H](O)C[C@@H]1[C@@]3(C)CC[C@H](O[C@@H]4O[C@H](CO)[C@@H](O)[C@H](O)[C@H]4O[C@@H]4O[C@H](CO)[C@@H](O)[C@H](O)[C@H]4O)C(C)(C)[C@@H]3CC[C@]12C [ginsenoside Rd] | –
